# Source: publication PMC12040169 (PLOS Biology, 2025)
# Experiment: in vitro
# Conditions: human, hela cells, % viability
row,SMILES,"viability at 28.5 h, 10 µM"
1,O=C(/C=C\c1ccc(Cl)cc1Cl)N1CCN(Cc2ccc3c(c2)OCO3)CC1 [CBK074371],97.3%
2,Cc1cc(OCC(O)CN2CCN(Cc3ccc4c(c3)OCO4)CC2)cc(C)c1Cl (stereo not drawn) [CBK074374],93.4%
3,COc1cccc(CN2CCN(C(=O)c3ccco3)CC2)c1OC [CBK074380],87.4%
4,Cc1cc(Cl)ccc1OCC(O)CN1CCN(Cc2ccc3c(c2)OCO3)CC1 (stereo not drawn) [CBK074383],92.3%
5,COc1ccc(CCNc2ncnc3sc4c(c23)CCCCC4)cc1OC [CBK074384],89.9%
6,O=C(CN1CCN(Cc2ccc3c(c2)OCO3)CC1)Nc1ccc(SC(F)(F)F)cc1 [CBK074385],108%
7,COc1cc(CNc2ccc(N3CCOCC3)c(Cl)c2)ccc1OCc1ccccc1F [CBK074392],93.6%
8,N#Cc1c(Nc2cccc(C(F)(F)F)c2)sc(C(=O)c2ccc3c(c2)OCO3)c1N [CBK074399],89.2%
9,O=C1CC(N2CCN(Cc3ccc4c(c3)OCO4)CC2)C(=O)N1c1ccc(Cl)cc1 (stereo not drawn) [CBK074402],103%
10,Cc1ccc(NC(=O)CN2CCN(Cc3ccc4c(c3)OCO4)CC2)cc1 [CBK074403],102%
11,O=C1c2cccc3cccc(c23)C(=O)N1CC1CCN(CC(O)COCc2ccccc2)CC1 (stereo not drawn) [CBK074407C],84.4%
12,COc1ccc(CN2CCN(C(=O)c3cccs3)CC2)cc1OC [CBK074410],104%
13,COc1ccccc1OCc1ccc(C(=O)N2CCN(c3cccc(C(F)(F)F)c3)CC2)o1 [CBK074417],62.7%
14,O=C(CCN1C(=O)c2cccc3cccc(c23)C1=O)N1CCN(Cc2ccc3c(c2)OCO3)CC1 [CBK074420],96.2%
15,COc1cccc(CNc2cccc(C(=O)O)c2)c1OCc1ccc(Cl)cc1Cl [CBK074424],91.3%
16,COc1ccc(C(=O)c2sc3nc(C)c(C)c(C)c3c2N)cc1OC [CBK074427],72.7%
17,O=C(c1sc2cc(Cl)ccc2c1Cl)N1CCN(Cc2ccc3c(c2)OCO3)CC1 [CBK074431],101%
18,COc1ccc(CCNc2oc(COc3ccccc3)nc2C#N)cc1 [CBK074469],90.2%
19,Nc1nc(-c2ccccc2)nn1C(=O)CCc1ccccc1 [CBK074471],95.9%
20,CCOc1cccc(CNc2ccc(O)cc2)c1OCc1ccccc1Cl [CBK074473],87.7%
21,CCOC(=O)COc1ccc(S(=O)(=O)N2CCN(Cc3ccc4c(c3)OCO4)CC2)cc1 [CBK074492],101%

row,SMILES,"viability at 28.5 h, 10 µM"
1,O=C(CN1CCN(C/C=C/c2ccccc2)CC1)Nc1ccc(C2CCCCC2)cc1 [CBK074497],112%
2,COc1cc(CN2CCN(S(=O)(=O)c3ccc(Cl)cc3)CC2)cc(OC)c1OC [CBK074499],91.3%
3,CCOc1cccc(N2C(=O)c3cc(Br)ccc3NC2c2ccc(OC)c(OC)c2)c1 (stereo not drawn) [CBK074502],88.4%
4,COc1ccc(S(=O)(=O)N2CCN(Cc3ccc4c(c3)OCO4)CC2)c2ccccc12 [CBK074521],96.4%
5,COc1ccc(-n2c(CNCc3ccc4c(c3)OCO4)nc3ccccc3c2=O)cc1 [CBK074522],102%
6,Nc1nc(NCc2ccccc2)nc(-c2cc(Cl)ccc2O)n1 [CBK074526],102%
7,COc1cccc(CN2CCN(C(=O)c3cccc(F)c3)CC2)c1OC [CBK074527],85.1%
8,COc1cc(CN2CCN(C(=O)c3cccc(Cl)c3)CC2)cc(OC)c1OC [CBK074530],97.1%
9,COc1cccc(CNc2ccc(N3CCCCC3)cc2)c1OCc1cccs1 [CBK074531],96.5%
10,COc1cc(-c2nc(S(=O)(=O)c3ccccc3)c(N3CCOCC3)o2)cc(OC)c1OC [CBK074539],90.1%
11,O=C1CC(N2CCN(Cc3ccc4c(c3)OCO4)CC2)C(=O)N1c1ccc(Br)cc1 (stereo not drawn) [CBK074544],89.9%
12,CCS(=O)(=O)N1CCN(Cc2ccc3c(c2)OCO3)CC1 [CBK074545],92.2%
13,O=C(NCc1ccccc1)c1ccc(NCc2ccccc2)c([N+](=O)[O-])c1 [CBK074547],92.9%
14,Nc1nc(NCCc2ccccc2)nc(-c2cc(Cl)ccc2O)n1 [CBK074551],91.8%
15,CCOC(=O)C1CCCN(Cc2ccc3c(c2)OCO3)C1 (stereo not drawn) [CBK074569],97.7%
16,CS(=O)(=O)N(CC(=O)N1CCN(Cc2ccc3c(c2)OCO3)CC1)c1cccc(F)c1 [CBK074572],102%
17,C=CCOc1c(Br)cc(CNc2cccc(C(=O)O)c2)cc1OC [CBK074581],97.3%
18,COc1cc(CNc2ccc(N3CCCCC3)cc2)cc(Cl)c1OCc1cccs1 [CBK074586],101%
19,COc1ccc(-c2cc(-c3c(O)ccc4c(C)cc(=O)oc34)nc(N)n2)cc1OC [CBK074619],85%
20,COc1ccc(C(=O)CN2CCN(CCN3C(=O)c4cccc5cccc(c45)C3=O)CC2)cc1 [CBK074628],75.7%
21,O=C(CN1CCCN(c2ncc(C(F)(F)F)cc2Cl)CC1)Nc1c(F)cccc1F [CBK074636],92.5%

row,SMILES,"viability at 28.5 h, 10 µM"
1,OC(CNCCNc1nccc(C(F)(F)F)n1)Cn1ccc2ccccc21 (stereo not drawn) [CBK074642],106%
2,OC(COc1ccc2c(c1)OCO2)CN1CCCN(c2nc3ccc(Cl)cc3s2)CC1 (stereo not drawn) [CBK074646],102%
3,OC(CSc1ccccc1)CN1CCC(Nc2nccc(C(F)(F)F)n2)CC1 (stereo not drawn) [CBK074648],94.5%
4,OC(CNCc1ccc2c(c1)OCO2)COc1ccc(Cl)c(Cl)c1 (stereo not drawn) [CBK074649],89.3%
5,O=S(=O)(NCCCN1CCN(Cc2ccccc2)CC1)c1cccc(Cl)c1Cl [CBK074655],114%
6,COc1ccc(CCNc2ccc(C(F)(F)F)cc2[N+](=O)[O-])cc1OC [CBK074656],87.4%
7,OC(CSc1ccccc1)CN1CCN(c2nc(-c3ccccc3)ns2)CC1 (stereo not drawn) [CBK074677C],110%
8,O=C(CN1CCN(c2ccc(C(F)(F)F)cn2)CC1)Nc1ccc2c(c1)OCO2 [CBK074680],102%
9,OC(CNCc1ccc2c(c1)OCO2)CSc1ccccc1 (stereo not drawn) [CBK074684],101%
10,Cc1ccc(OCC(O)CN2CCN(c3nc(-c4ccccc4)ns3)CC2)c([N+](=O)[O-])c1 (stereo not drawn) [CBK074696],95.3%
11,CC(C(=O)c1ccc(-c2ccccc2F)cc1)N1CCN(c2ccc(C#N)cc2)CC1 (stereo not drawn) [CBK074706],92%
12,OC(CN1CCN(c2ccc(C(F)(F)F)cn2)CC1)c1ccc2c(c1)OCCO2 (stereo not drawn) [CBK074707],104%
13,Cc1ccc(Oc2ncccc2NC(=O)CN2CCC(NC(=O)c3ccccc3)CC2)c2c1CCC2 [CBK074715],112%
14,O=C(NC1CCN(Cc2c(F)cccc2Cl)CC1)C1CCN(C(=O)OCc2ccccc2)CC1 [CBK074720],108%
15,O=C(CN1CCN(c2nc3cc(Cl)ccc3s2)CC1)c1ccc2c(c1)OCCCO2 [CBK074737],96.6%
16,O=S(=O)(c1cc(Cl)sc1Cl)N1CCN(Cc2ccc3c(c2)OCO3)CC1 [CBK074743],92.6%
17,O=S(=O)(c1ccc(F)cc1F)N1CCN(Cc2ccc3c(c2)OCO3)CC1 [CBK074744],91.7%
18,O=C(Nc1cccc2ccccc12)N1CCN(Cc2ccc3c(c2)OCO3)CC1 [CBK074747],89%
19,O=C(O)c1ccccc1C(=O)N1CCN(Cc2ccc3c(c2)OCO3)CC1 [CBK074751],97.9%
20,O=C(Nc1ccc(OC(F)(F)F)cc1)N1CCN(Cc2ccc3c(c2)OCO3)CC1 [CBK074754],99.5%
21,O=C(c1cc(C(F)(F)F)cc(C(F)(F)F)c1)N1CCN(Cc2ccc3c(c2)OCO3)CC1 [CBK074756],98.2%

row,SMILES,"viability at 28.5 h, 10 µM"
1,OC(CN1CCN(Cc2ccc3c(c2)OCO3)CC1)c1ccccc1 (stereo not drawn) [CBK074759],82.8%
2,COc1cc(OCc2ccccc2)ccc1CN1CCN(Cc2ccc3c(c2)OCO3)CC1 [CBK074768],97.9%
3,O=C(O)CC(CC(=O)N1CCN(Cc2ccc3c(c2)OCO3)CC1)c1ccccc1 (stereo not drawn) [CBK074769],96%
4,O=C(CNC1CCN(Cc2ccccc2)CC1)Nc1ccc(Cl)cc1C(=O)c1ccccc1Cl [CBK074770],107%
5,c1ccc(CN2CCN(Cc3c[nH]c(-c4ccccc4)n3)CC2)cc1 [CBK074775],84.6%
6,O=C(CN1CCN(C(=O)C2COc3ccccc3O2)CC1)Nc1ccc2c(c1)OCCO2 (stereo not drawn) [CBK074777],111%
7,O=C(CN1CCN(Cc2ccccc2)CC1)Nc1ccc(C(F)(F)F)cc1Cl [CBK074781],103%
8,O=C(CN1CCN(Cc2ccccc2)CC1)Nc1ccccc1Oc1ccccc1 [CBK074782],90.2%
9,O=C(CCN1CCN(C(c2ccccc2)c2ccccc2)CC1)c1ccccc1 [CBK074788],111%
10,O=C(Nc1ccc(OCc2ccccc2)cc1)OCC1CN(Cc2ccccc2)CCO1 (stereo not drawn) [CBK074792],102%
11,O=S(=O)(CCN1CCN(Cc2ccccc2)CC1)c1ccc(F)cc1 [CBK074809],108%
12,O=C1c2ccccc2C(=O)N1CCN1CCN(Cc2ccccc2)CC1 [CBK074813],110%
13,COc1ccc(CCNc2ccccc2[N+](=O)[O-])cc1OC [CBK074819],104%
14,Nc1ccccc1SC(CC(=O)c1ccccc1)c1ccc2c(c1)OCO2 (stereo not drawn) [CBK074823],80.2%
15,O=S(=O)(Cc1ccc(Cl)cc1)N1CCN(Cc2ccc3c(c2)OCO3)CC1 [CBK074827],101%
16,O=S1(=O)CCN(Cc2ccc3c(c2)OCCCO3)CC1 [CBK074831],101%
17,COc1ccccc1N1CCN(CCCCNS(=O)(=O)c2ccc(Cl)c(Cl)c2)CC1 [CBK074837],97.8%
18,O=C(CN1C(=O)c2ccccc2C1=O)N1CCN(Cc2ccc3c(c2)OCO3)CC1 [CBK074846],97.3%
19,O=C1c2cccc3cccc(c23)C(=O)N1CCN1CCN(CC(O)COc2ccc3c(c2)OCO3)CC1 (stereo not drawn) [CBK074849C],87.4%
20,OC(COCc1ccc2c(c1)OCO2)CN1CCN(C(c2ccccc2)c2ccccc2)CC1 (stereo not drawn) [CBK074850C],83.2%

# Same assay, conditions: human, hela cells, % viability, bulk resorufin, single well
row,SMILES,"viability at 28.5 h, 10 µM"
1,COc1ccc(CCNCc2ccc3c(c2)OCO3)cc1 [CBK074488],95.7%
